Results: publication PMC2932756 (Chemico-biological interactions, 2010)

Assays:
tyrosinase = assay: Tyrosinase mediated GSH depletion assay; type: biochemical, Mushroom; conditions: 100 μM phenolic agent, 200 μM GSH, tyrosinase/O2, 37 °C, 2 h
SK-MEL-28 melanoma cells = assay: MTT cell viability assay, IC50; type: cell-based, human; conditions: MTT assay, 48 h incubation
[1] = tested on: CYP2E1 induced rat liver microsomes; conditions: 100 μM, pH 7.4
isolated rat hepatocytes = conditions: trypan blue exclusion, 2 h incubation; cited from earlier work

Compound	Tyrosinase GSH depletion (2 h) (tyrosinase) [%]	LD50 (day 2) SK-MEL-28 (SK-MEL-28 melanoma cells) [mM]	Microsomes GSH depletion (2 h) [1] [%]	LD50 (2 h) rat hepatocytes (isolated rat hepatocytes) [mM]
O=C(/C=C/c1ccc(O)c(O)c1)O[C@@H]1C[C@](O)(C(=O)O)C[C@@H](O)[C@H]1O [CGA, chlorogenic acid]	200±5	>5	–	–
O=C(O)/C=C/c1ccccc1 [CinA, cinnamic acid]	40±7	–	110±7	–
O=C(O)CCc1ccc(O)c(O)c1 [DHCA, dihydrocaffeic acid]	200±4	2.2	–	6
O=C(O)CCc1ccccc1 [DHCinA, Dihydrocinnamic acid]	32±3	5	–	–
ferulic acid [FA]	46±2	2	–	25
